{"source": "ChEMBL document CHEMBL5512614", "about": "“Annual review of PROTAC degraders as anticancer agents in 2022” (Eur J Med Chem, 2024)", "key": {"[1]": {"tested_on": "CWR22R", "experiment": "Inhibition of cell growth in human 22Rv1 cells", "format": "functional, cell-based"}, "[2]": {"target": "Cyclin-dependent kinase 9 (Homo sapiens, UniProt P50750)", "sequence (P50750 whole entry)": "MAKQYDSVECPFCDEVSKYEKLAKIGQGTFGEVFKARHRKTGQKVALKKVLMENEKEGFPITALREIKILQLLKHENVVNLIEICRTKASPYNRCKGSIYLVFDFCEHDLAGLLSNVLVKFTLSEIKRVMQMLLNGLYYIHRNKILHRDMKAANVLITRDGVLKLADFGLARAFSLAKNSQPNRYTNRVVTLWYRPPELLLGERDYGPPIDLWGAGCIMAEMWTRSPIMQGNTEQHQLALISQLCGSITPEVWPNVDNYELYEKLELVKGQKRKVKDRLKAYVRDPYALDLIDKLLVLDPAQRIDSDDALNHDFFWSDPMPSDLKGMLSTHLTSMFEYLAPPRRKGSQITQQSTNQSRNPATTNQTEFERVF", "experiment": "Induction of CDK9 degradation in human 22Rv1 cells", "format": "cell-based"}, "[3]": {"target": "Cyclin-T1 (Homo sapiens, UniProt O60563)", "sequence (O60563 whole entry)": "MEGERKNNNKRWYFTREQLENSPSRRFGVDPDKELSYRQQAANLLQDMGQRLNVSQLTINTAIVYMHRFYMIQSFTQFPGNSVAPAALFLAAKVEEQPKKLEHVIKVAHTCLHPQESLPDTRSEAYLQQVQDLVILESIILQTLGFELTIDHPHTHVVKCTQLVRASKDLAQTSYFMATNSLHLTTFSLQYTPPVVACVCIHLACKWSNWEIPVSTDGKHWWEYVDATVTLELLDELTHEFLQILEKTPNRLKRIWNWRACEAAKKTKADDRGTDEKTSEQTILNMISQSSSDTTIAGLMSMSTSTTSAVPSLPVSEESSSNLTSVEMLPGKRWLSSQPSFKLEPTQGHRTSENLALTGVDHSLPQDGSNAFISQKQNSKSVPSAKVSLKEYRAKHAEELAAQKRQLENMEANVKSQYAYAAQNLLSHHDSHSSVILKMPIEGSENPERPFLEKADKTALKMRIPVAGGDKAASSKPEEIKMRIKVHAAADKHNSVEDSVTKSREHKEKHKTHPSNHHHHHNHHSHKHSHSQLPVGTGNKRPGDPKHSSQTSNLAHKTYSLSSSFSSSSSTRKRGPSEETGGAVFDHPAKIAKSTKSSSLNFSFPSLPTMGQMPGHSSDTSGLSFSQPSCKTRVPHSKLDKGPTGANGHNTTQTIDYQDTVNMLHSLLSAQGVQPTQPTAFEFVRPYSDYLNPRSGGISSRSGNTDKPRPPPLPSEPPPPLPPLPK", "experiment": "Induction of Cyclin T1 degradation in human 22Rv1 cells", "format": "cell-based"}, "[4]": {"target": "Bromodomain-containing protein 4 (Homo sapiens, UniProt O60885)", "experiment": "Inhibition of BRD4 in HEK293T cells", "format": "cell-based"}, "[5]": {"target": "T1, Protein fem-1 homolog B/Bromodomain-containing protein 4 (Homo sapiens, UniProt O60885+Q9UK73)", "T1 sequence (Q9UK73 whole entry, looked up, other chains not shown)": "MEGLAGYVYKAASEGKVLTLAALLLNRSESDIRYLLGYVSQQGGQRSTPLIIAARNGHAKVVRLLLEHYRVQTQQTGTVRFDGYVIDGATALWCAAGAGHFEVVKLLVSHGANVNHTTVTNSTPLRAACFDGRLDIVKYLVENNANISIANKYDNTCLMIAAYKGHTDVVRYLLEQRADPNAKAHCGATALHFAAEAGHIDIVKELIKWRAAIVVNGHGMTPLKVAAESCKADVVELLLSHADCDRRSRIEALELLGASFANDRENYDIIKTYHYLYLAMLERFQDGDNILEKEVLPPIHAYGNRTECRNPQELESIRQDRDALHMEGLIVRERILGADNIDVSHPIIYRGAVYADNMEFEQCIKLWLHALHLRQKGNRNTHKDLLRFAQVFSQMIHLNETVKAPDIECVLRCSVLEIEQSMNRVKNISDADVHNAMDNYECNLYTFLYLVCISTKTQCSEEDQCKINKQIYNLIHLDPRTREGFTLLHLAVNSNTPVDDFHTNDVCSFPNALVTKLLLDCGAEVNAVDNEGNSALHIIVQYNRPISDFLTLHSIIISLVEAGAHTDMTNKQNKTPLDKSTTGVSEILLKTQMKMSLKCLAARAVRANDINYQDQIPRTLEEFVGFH", "experiment": "PROTAC activity at FEM1B/BRD4 in HEK293T cells assessed as protein degradation relative to control", "format": "cell-based"}, "[6]": {"target": "T1, Protein fem-1 homolog B/Bromodomain-containing protein 4", "experiment": "PROTAC activity at FEM1B/BRD4 in HEK293T cells assessed as protein degradation", "format": "cell-based"}, "[7]": {"target": "RAC-alpha serine/threonine-protein kinase (Homo sapiens, UniProt P31749)", "sequence (P31749 whole entry)": "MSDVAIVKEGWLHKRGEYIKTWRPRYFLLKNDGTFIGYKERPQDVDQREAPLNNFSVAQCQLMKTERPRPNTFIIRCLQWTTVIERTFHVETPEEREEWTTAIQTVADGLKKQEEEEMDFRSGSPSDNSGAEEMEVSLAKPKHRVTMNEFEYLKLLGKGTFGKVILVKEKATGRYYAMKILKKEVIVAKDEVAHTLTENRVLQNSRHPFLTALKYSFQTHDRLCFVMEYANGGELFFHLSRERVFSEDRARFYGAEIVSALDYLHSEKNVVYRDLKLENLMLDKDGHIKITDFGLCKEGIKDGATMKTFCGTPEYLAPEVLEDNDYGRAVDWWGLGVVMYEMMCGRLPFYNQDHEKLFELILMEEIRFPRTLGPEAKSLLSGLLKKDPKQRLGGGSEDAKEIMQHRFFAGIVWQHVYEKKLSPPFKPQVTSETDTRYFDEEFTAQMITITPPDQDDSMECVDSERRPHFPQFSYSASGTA", "experiment": "Inhibition of AKT1 (unknown origin)"}, "[8]": {"target": "RAC-beta serine/threonine-protein kinase (Homo sapiens, UniProt P31751)", "sequence (P31751 whole entry)": "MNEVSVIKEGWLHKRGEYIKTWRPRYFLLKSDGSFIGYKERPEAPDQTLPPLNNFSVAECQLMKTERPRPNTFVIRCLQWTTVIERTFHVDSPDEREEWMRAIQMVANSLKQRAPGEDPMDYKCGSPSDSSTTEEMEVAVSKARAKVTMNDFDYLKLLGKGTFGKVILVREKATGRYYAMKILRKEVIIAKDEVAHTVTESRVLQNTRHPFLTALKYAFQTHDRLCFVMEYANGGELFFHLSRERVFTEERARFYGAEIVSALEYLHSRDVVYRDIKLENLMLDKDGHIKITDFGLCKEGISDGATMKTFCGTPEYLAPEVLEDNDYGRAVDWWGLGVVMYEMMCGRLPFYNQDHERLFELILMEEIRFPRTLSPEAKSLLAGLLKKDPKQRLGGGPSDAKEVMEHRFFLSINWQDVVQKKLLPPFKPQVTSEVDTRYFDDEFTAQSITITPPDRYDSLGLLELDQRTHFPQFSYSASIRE", "experiment": "Inhibition of AKT2 (unknown origin)"}, "[9]": {"target": "RAC-gamma serine/threonine-protein kinase (Homo sapiens, UniProt Q9Y243)", "sequence (Q9Y243 whole entry)": "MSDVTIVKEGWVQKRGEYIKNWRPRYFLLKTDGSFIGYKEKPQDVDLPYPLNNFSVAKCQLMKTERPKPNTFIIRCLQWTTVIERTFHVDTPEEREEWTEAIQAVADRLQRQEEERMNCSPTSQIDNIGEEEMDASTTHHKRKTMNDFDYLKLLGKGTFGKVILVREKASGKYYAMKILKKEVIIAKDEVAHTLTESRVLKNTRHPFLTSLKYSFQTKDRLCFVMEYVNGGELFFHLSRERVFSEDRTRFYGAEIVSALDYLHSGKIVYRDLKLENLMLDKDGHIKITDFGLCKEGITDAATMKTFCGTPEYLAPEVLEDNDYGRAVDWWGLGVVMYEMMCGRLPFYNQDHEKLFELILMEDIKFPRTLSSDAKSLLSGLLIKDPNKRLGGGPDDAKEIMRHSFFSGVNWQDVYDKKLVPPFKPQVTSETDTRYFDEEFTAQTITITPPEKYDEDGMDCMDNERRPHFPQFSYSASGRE", "experiment": "Inhibition of AKT3 (unknown origin)"}, "[10]": {"target": "von Hippel-Lindau disease tumor suppressor/AKT (Homo sapiens, UniProt P31751+Q9Y243+P31749+P40337)", "sequence (P31751 whole entry)": "as the sequence (P31751 whole entry) above", "sequence (Q9Y243 whole entry)": "as the sequence (Q9Y243 whole entry) above", "sequence (P31749 whole entry)": "as the sequence (P31749 whole entry) above", "sequence (P40337 whole entry)": "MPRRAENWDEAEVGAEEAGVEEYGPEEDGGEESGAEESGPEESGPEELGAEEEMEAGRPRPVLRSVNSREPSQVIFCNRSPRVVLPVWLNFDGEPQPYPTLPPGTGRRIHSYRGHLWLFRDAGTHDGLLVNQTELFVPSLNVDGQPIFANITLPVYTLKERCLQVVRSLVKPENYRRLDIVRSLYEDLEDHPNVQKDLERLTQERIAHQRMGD", "experiment": "PROTAC activity at VHL/AKT in human SW620 cells assessed as protein degradation", "format": "cell-based"}, "[11]": {"tested_on": "SW-620", "experiment": "Inhibition of cell growth in human SW620 cells", "format": "functional"}, "[12]": {"target": "von Hippel-Lindau disease tumor suppressor/GTPase KRas (Homo sapiens, UniProt P01116+P40337, G12C)", "sequence (P01116 whole entry G12C, stated change not applied)": "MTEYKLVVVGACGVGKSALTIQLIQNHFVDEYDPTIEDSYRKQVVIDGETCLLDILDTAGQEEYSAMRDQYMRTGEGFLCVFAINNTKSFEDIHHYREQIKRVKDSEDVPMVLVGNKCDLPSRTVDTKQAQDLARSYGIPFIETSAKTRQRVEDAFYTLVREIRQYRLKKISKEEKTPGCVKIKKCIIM", "sequence (P40337 whole entry, stated change not applied)": "as the sequence (P40337 whole entry) above", "experiment": "PROTAC activity at VHL/KRAS G12C mutant in human NCI-H2030 cells assessed as protein degradation incubated for 24 hrs by Western blot analysis", "format": "cell-based"}, "[13]": {"target": "Focal adhesion kinase 1 (Homo sapiens, UniProt Q05397)", "experiment": "Inhibition of FAK (unknown origin) incubated for 50 mins in presence of substrate/ATP by HTRF assay"}, "[14]": {"target": "Protein cereblon/Focal adhesion kinase 1 (Homo sapiens) (UniProt Q05397+Q96SW2)", "experiment": "PROTAC activity at CRBN/FAK in human A549 cells assessed as protein degradation at 10 nM incubated for 12 hrs by Western blot analysis relative to control", "format": "cell-based"}, "[15]": {"experiment": "Stability in human plasma assessed as half life at 2 uM incubated for 120 mins by LC-MS/MS analysis", "format": "ADME, cell-free"}, "[16]": {"target": "T2, Epidermal growth factor receptor (Homo sapiens, UniProt P00533)", "T2 sequence (P00533 whole entry)": "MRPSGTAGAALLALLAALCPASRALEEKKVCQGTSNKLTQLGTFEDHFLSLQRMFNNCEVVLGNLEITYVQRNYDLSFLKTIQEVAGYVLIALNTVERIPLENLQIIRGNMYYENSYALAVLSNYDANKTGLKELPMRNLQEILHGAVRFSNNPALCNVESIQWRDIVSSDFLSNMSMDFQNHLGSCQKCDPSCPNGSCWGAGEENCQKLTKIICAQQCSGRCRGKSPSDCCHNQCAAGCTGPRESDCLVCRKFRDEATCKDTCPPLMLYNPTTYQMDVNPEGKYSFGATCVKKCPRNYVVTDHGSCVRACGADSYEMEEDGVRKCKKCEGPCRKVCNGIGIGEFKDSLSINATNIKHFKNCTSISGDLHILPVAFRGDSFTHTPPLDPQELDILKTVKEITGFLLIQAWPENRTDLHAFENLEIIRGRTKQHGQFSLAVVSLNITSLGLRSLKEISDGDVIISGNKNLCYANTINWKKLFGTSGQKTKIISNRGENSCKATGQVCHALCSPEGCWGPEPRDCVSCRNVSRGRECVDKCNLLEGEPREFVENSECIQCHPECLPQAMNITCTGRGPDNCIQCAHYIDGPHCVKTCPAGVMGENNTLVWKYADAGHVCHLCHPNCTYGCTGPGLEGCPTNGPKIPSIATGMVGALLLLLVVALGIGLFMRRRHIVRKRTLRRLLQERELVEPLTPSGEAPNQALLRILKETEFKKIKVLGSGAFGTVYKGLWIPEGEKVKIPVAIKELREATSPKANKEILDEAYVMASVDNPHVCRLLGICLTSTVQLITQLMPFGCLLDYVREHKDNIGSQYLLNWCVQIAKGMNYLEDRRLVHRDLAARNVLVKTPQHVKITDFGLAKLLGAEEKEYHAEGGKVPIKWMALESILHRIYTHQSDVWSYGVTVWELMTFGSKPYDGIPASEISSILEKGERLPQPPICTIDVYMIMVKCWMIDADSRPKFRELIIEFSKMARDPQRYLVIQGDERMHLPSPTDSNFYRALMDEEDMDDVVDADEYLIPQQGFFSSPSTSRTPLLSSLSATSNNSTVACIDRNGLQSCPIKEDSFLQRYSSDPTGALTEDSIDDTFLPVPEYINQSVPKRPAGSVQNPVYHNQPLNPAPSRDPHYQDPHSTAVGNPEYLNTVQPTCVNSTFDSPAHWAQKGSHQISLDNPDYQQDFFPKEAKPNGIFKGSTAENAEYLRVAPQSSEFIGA", "experiment": "Inhibition of wild-type EGFR in human A549 cells", "format": "cell-based"}, "[17]": {"target": "T2, Epidermal growth factor receptor", "experiment": "Inhibition of wild-type EGFR in human A-431 cells", "format": "cell-based"}, "[18]": {"experiment": "Inhibition of EGFR L858R/790M mutant in human NCI-H1975 cells", "format": "cell-based"}, "[19]": {"target": "von Hippel-Lindau disease tumor suppressor/Epidermal growth factor receptor (Homo sapiens, UniProt P00533+P40337)", "experiment": "PROTAC activity at VHL/EGFR del19 mutant in human HCC827 cells assessed as protein degradation", "format": "cell-based"}, "[20]": {"tested_on": "von Hippel-Lindau disease tumor suppressor/Epidermal growth factor receptor (Homo sapiens), P00533+P40337 [UNDEFINED MUTATION]", "experiment": "PROTAC activity at VHL/EGFR del19 mutant in human HCC827 cells assessed as protein degradation relative to control", "format": "cell-based"}, "[21]": {"experiment": "Inhibition of EGFR del19 mutant in human HCC827 cells", "format": "cell-based"}}, "note": "pIC50: −log10 of the molar value.", "data": [{"smiles": "CC1CCC(C(C)C)C(OCC(=O)NCCS(=O)(=O)N2CCC(C(=O)Nc3ncc(SCc4ncc(C(C)(C)C)o4)s3)CC2)C1", "note": "(stereo unspecified)", "values": [{"measurement": "pIC50", "setting": "[1]", "value": 7.02}, {"measurement": "DC50", "setting": "[2]", "value": 62, "unit": "nM"}, {"measurement": "DC50", "setting": "[3]", "value": 589, "unit": "nM"}]}, {"smiles": "Cc1sc2c(c1C)C(c1ccc(Cl)cc1)=N[C@H](CC(=O)NCCCCCNC(=O)CN1CCOc3cc(N(CCC#N)C(=O)CCl)ccc31)c1nnc(C)n1-2", "values": [{"measurement": "pIC50", "setting": "[4]", "value": 5.85}, {"measurement": "Emax", "setting": "[5]", "value": 94, "unit": "%"}, {"measurement": "DC50", "setting": "[6]", "value": 250, "unit": "nM"}]}, {"smiles": "Cc1ncsc1-c1ccc(C(C)NC(=O)C2CC(O)CN2C(=O)C(NC(=O)CCCCCCCCCCNC(=O)CCc2cccc(-c3ccc4nc(-c5cccnc5N)n(-c5ccc(C6(N)CCC6)cc5)c4n3)c2)C(C)(C)C)cc1", "note": "(stereo unspecified)", "values": [{"measurement": "pIC50", "setting": "[7]", "value": 6.10}, {"measurement": "pIC50", "setting": "[8]", "value": 7.05}, {"measurement": "pIC50", "setting": "[9]", "value": 6.26}, {"measurement": "DC50", "setting": "[10]", "value": 23, "unit": "nM"}, {"measurement": "GI50", "setting": "[11]", "value": 3100, "unit": "nM"}]}, {"smiles": "C=C(F)C(=O)N1CCN(c2nc(OC[C@@H]3CCCN3CCCOCCC(=O)N[C@H](C(=O)N3CC(O)C[C@H]3C(=O)NCc3ccc(-c4scnc4C)cc3)C(C)(C)C)nc3c2CCN(c2cccc4cccc(Cl)c24)C3)C[C@@H]1CC#N", "note": "(stereo partly specified)", "values": [{"measurement": "DC50", "setting": "[12]", "value": 590, "unit": "nM"}]}, {"smiles": "CN(c1ncccc1CNc1nc(Nc2ccc(N3CCN(CCCCCCC(=O)NCCNc4cccc5c4C(=O)N(C4CCC(=O)NC4=O)C5=O)CC3)cc2)ncc1C(F)(F)F)S(C)(=O)=O", "note": "(stereo unspecified)", "values": [{"measurement": "pIC50", "setting": "[13]", "value": 7.58}, {"measurement": "Emax", "setting": "[14]", "value": 85, "unit": "%"}, {"measurement": "half-life at 2 µM", "setting": "[15]", "value": "> 3.25", "unit": "h"}]}, {"smiles": "Cc1ncsc1-c1ccc(CNC(=O)C2CC(O)CN2C(=O)C(NC(=O)CCCCCCCCCCn2cc(COc3cc4ncnc(Nc5ccc(F)c(Cl)c5)c4cc3NC(=O)/C=C/CN3CCCCC3)nn2)C(C)(C)C)cc1", "note": "(stereo unspecified)", "values": [{"measurement": "pIC50", "setting": "[16]", "value": "< 4.70"}, {"measurement": "pIC50", "setting": "[17]", "value": "< 4.70"}, {"measurement": "pIC50", "setting": "[18]", "value": "< 4.70"}, {"measurement": "DC50", "setting": "[19]", "value": 3.57, "unit": "nM"}, {"measurement": "Emax", "setting": "[20]", "value": 91, "unit": "%"}, {"measurement": "pIC50", "setting": "[21]", "value": 8.22}]}]}
